Reference: the supplement of paper PMC13380429

Key:
Conditions in all cases: 72 h
Calu-3 [1] = assay: relative viability EC50 (midpoint between 100% and the lowest measured viability); higher = less toxic
HepG2 [2] = assay: as above
Caco-2 [3] = assay: as above
Vero E6 [4] = assay: as above
Calu-3 [5] = assay: drug sensitivity score (DSS) for viability; higher = more toxic; extreme values may be limits of the assay
HepG2 [6] = assay: as above
Caco-2 [7] = assay: as above
Vero E6 [8] = assay: as above
Calu-3 [9] = assay: cell viability relative to DMSO; higher = less toxic
HepG2 [10] = assay: as above
Caco-2 [11] = assay: as above
Vero E6 [12] = assay: as above
U2OS [13] = assay: relative viability EC50 (midpoint between 100% and the lowest measured viability); higher = less toxic
U2OS [14] = assay: drug sensitivity score (DSS) for viability; higher = more toxic; extreme values may be limits of the assay
U2OS [15] = assay: cell viability relative to DMSO; higher = less toxic

| SMILES | relative viability EC50 (Calu-3 [1]) [µM] | relative viability EC50 (HepG2 [2]) [µM] | relative viability EC50 (Caco-2 [3]) [µM] | relative viability EC50 (Vero E6 [4]) [µM] | drug sensitivity score (Calu-3 [5]) | drug sensitivity score (HepG2 [6]) | drug sensitivity score (Caco-2 [7]) | drug sensitivity score (Vero E6 [8]) | cell viability (Calu-3 [9]; 1 nM) [%] | cell viability (Calu-3 [9]; 10 nM) [%] | cell viability (Calu-3 [9]; 100 nM) [%] | cell viability (Calu-3 [9]; 1000 nM) [%] | cell viability (Calu-3 [9]; 10000 nM) [%] | cell viability (HepG2 [10]; 1 nM) [%] | cell viability (HepG2 [10]; 10 nM) [%] | cell viability (HepG2 [10]; 100 nM) [%] | cell viability (HepG2 [10]; 1000 nM) [%] | cell viability (HepG2 [10]; 10000 nM) [%] | cell viability (Caco-2 [11]; 1 nM) [%] | cell viability (Caco-2 [11]; 10 nM) [%] | cell viability (Caco-2 [11]; 100 nM) [%] | cell viability (Caco-2 [11]; 1000 nM) [%] | cell viability (Caco-2 [11]; 10000 nM) [%] | cell viability (Vero E6 [12]; 1 nM) [%] | cell viability (Vero E6 [12]; 10 nM) [%] | cell viability (Vero E6 [12]; 100 nM) [%] | cell viability (Vero E6 [12]; 1000 nM) [%] | cell viability (Vero E6 [12]; 10000 nM) [%] | relative viability EC50 (U2OS [13]) [µM] | drug sensitivity score (U2OS [14]) | cell viability (U2OS [15]; 1 nM) [%] | cell viability (U2OS [15]; 10 nM) [%] | cell viability (U2OS [15]; 100 nM) [%] | cell viability (U2OS [15]; 1000 nM) [%] | cell viability (U2OS [15]; 10000 nM) [%] |
| --- | --- | --- | --- | --- | --- | --- | --- | --- | --- | --- | --- | --- | --- | --- | --- | --- | --- | --- | --- | --- | --- | --- | --- | --- | --- | --- | --- | --- | --- | --- | --- | --- | --- | --- | --- |
| NCCc1ccccn1 [2-pyridylethylamine] | > 10 | > 10 | > 10 | > 10 | 0 | 0 | 0 | 0 | 98.8 | 88.4 | 93.4 | 105 | 101 | 113 | 104 | 113 | 113 | 93.6 | 110 | 96.4 | 107 | 101 | 108 | 95.2 | 105 | 105 | 102 | 96.6 |  |  |  |  |  |  |  |
| NC[C@H]1CC[C@H](C(=O)O)CC1 [tranexamic-acid] | > 10 |  | > 10 | > 10 | 0 |  | 0 | 0 | 101 | 95.5 | 87.8 | 94.7 | 90.9 |  |  |  |  |  | 106 | 105 | 104 | 98.3 | 96.4 | 98.1 | 101 | 105 | 94.4 | 103 |  |  |  |  |  |  |  |
| Cc1ccc(=O)n(-c2ccccc2)c1 [pirfenidone] | > 10 | > 10 | > 10 | > 10 | 0 | 0 | 0 | 0 | 103 | 95.3 | 107 | 103 | 109 | 91.7 | 100 | 106 | 98.8 | 104 | 99.3 | 93.6 | 102 | 99.7 | 100 | 107 | 104 | 105 | 103 | 100 |  |  |  |  |  |  |  |
| CCC(C)(CN(C)C)OC(=O)c1ccccc1 (stereo unspecified) [amyleine] | > 10 | > 10 | > 10 | > 10 | 0 | 0.1 | 0 | 0 | 106 | 95.6 | 101 | 102 | 114 | 106 | 103 | 109 | 98.1 | 88.7 | 115 | 88.1 | 97.3 | 101 | 92.7 | 108 | 99.8 | 99 | 104 | 100 |  |  |  |  |  |  |  |
| C=CC1=C(C)c2cc3[nH]c(cc4nc(cc5[nH]c(cc1n2)c(C)c5CCC(=O)O)C(CCC(=O)O)=C4C)c(C)c3C=C [protoporphyrin-IX] | > 10 | > 10 | > 10 |  | 0.6 | 0.8 | 1.4 | 2.6 | 97.4 | 93.8 | 105 | 97.5 | 84.1 | 102 | 91.1 | 105 | 94.2 | 84.6 | 101 | 102 | 92.7 | 94.4 | 76.4 | 99.8 | 71.4 | 110 | 75.2 | 78.6 | > 10 | 0 | 101 | 101 | 98.2 | 101 | 88.6 |
| O=[N+]([O-])c1cn2c(n1)OC[C@@H](OCc1ccc(OC(F)(F)F)cc1)C2 [pretomanid] | > 10 | > 10 | > 10 | > 10 | 0 | 0 | 0 | 0 | 101 | 96.5 | 96.4 | 112 | 103 | 106 | 103 | 102 | 96.3 | 100 | 98.3 | 100 | 102 | 99.3 | 92.6 | 111 | 97.6 | 103 | 95.8 | 102 |  |  |  |  |  |  |  |
| O=C1CNC(=O)CN1 [piperazinedione] | > 10 | > 10 | > 10 |  | 0 | 0 | 0 | 2.1 | 91.8 | 99.4 | 91.8 | 93.4 | 94 | 102 | 94.9 | 96.4 | 100 | 103 | 98.3 | 102 | 98.9 | 99.4 | 94.8 | 99.5 | 96.4 | 102 | 91.4 | 74.7 | > 10 | 0 | 99 | 99 | 97.4 | 101 | 99.8 |
| O=C1NC(=O)/C(=C/c2ccc3c(c2)OC(F)(F)O3)S1 | 0.0473 | > 10 | 1.62 | 0.401 | 20.7 | 1.1 | 5.6 | 8.2 | 97.4 | 89.3 | 46.8 | 30.5 | 24.7 | 95.8 | 95.6 | 101 | 98.9 | 75.2 | 94.5 | 97.9 | 84.6 | 81 | 35.1 | 103 | 94.6 | 87.8 | 63 | 45.1 |  | 4 | 94.3 | 96.2 | 89.6 | 91.2 | 51.3 |
| C[C@@]1(C(=O)O)NCCc2cc(O)c(O)cc21 [salsolinol-1-carboxylic-acid] | > 10 | > 10 | > 10 | > 10 | 0 | 0 | 0 | 0 | 98.9 | 105 | 103 | 106 | 107 | 100 | 106 | 95 | 94.3 | 107 | 103 | 101 | 97.4 | 109 | 106 | 100 | 95.2 | 94.8 | 92.2 | 104 |  |  |  |  |  |  |  |
| Cc1coc2c1C(=O)C(=O)c1c-2ccc2c1CCCC2(C)C [tanshinone-IIA] | > 10 |  | > 10 | > 10 | 0 | 3.7 | 0.7 | 0 | 109 | 105 | 101 | 94.1 | 101 | 90.6 | 105 | 96.5 | 91.4 | 55.4 | 97.6 | 95.7 | 92.9 | 103 | 77 | 106 | 104 | 103 | 101 | 97.4 |  | 1 | 102 | 99.2 | 95.7 | 99.6 | 74.9 |
| CCC[C@@H]1C[C@@H](C(=O)N[C@@H]([C@H]2O[C@H](SC)[C@H](O)[C@@H](O)[C@H]2O)[C@@H](C)O)N(C)C1 [lincomycin] | > 10 |  | > 10 | > 10 | 0 |  | 0 | 0 | 99.5 | 92.6 | 99.1 | 98.7 | 103 |  |  |  |  |  | 111 | 94.2 | 107 | 97.2 | 111 | 97.6 | 103 | 94.9 | 89.6 | 101 |  |  |  |  |  |  |  |
| FC(F)c1nc2ccccc2n1-c1nc(N2CCOCC2)nc(N2CCOCC2)n1 [ZSTK-474] | 1.51 | 1.25 | 1.14 | 0.768 | 5.6 | 6.9 | 7.9 | 6.8 | 101 | 102 | 95.3 | 84 | 40.6 | 105 | 106 | 98.5 | 75.6 | 34.3 | 102 | 99.2 | 97.9 | 68.2 | 27.1 | 95.2 | 101 | 90.3 | 69.8 | 42.4 |  | 2.7 | 96 | 97.4 | 98.1 | 95.6 | 60 |
| Cn1cc(CCn2cnc(-c3cnn(C)c3)c2-c2ccc(C#N)cc2)cn1 [BAZ2-ICR] | > 10 | > 10 | > 10 | > 10 | 0 | 0 | 0 | 0 |  |  |  |  |  |  |  |  |  |  |  |  |  |  |  |  |  |  |  |  |  | 0 |  |  |  |  |  |
| N#Cc1nn(-c2c(Cl)cc(C(F)(F)F)cc2Cl)c(N)c1[S+]([O-])C(F)(F)F (stereo unspecified) [fipronil] | > 10 | > 10 | > 10 | > 10 | 0 | 0 | 0 | 0 | 99.3 | 92 | 102 | 103 | 102 | 98.2 | 109 | 97.8 | 91.1 | 103 | 103 | 105 | 102 | 96.7 | 94.1 | 106 | 102 | 99.2 | 101 | 102 |  |  |  |  |  |  |  |
| CCC[C@H](N[C@@H](C)C(=O)N1[C@H](C(=O)O)C[C@@H]2CCCC[C@@H]21)C(=O)OCC [perindopril] | > 10 | > 10 | > 10 | > 10 | 0 | 0 | 0 | 0 | 97 | 86.8 | 93.1 | 90.1 | 102 | 99.1 | 105 | 95.8 | 97.2 | 92.4 | 107 | 99.9 | 94.4 | 101 | 99.5 | 99.4 | 105 | 98.1 | 97.3 | 98.8 |  |  |  |  |  |  |  |
